From patent US12559505B2, “IDH mutant inhibitor and use thereof” (WIGEN BIOMEDICINE TECHNOLOGY (SHANGHAI) CO., LTD., priority 2020, dated 2026)

Biological target: T1, IDH R132C (Homo sapiens, UniProt O75874, R132C)
T1 construct: expressed in transfected cells; host or cells: U87 cells
Test: Detection of 2-HG in supernatant of U87-IDH R132C cells
Format: cell-based
Conditions: 72 h, LC-MS-MS, vs control; for inhibition at 0.001 µM: read-out: Inhibition rate of compounds on 2-HG in the supernatant of U87-IDH R132C cells, 1 nM; for inhibition at 0.01 µM: read-out: Inhibition rate of compounds on 2-HG in the supernatant of U87-IDH R132C cells, 10 nM; for inhibition at 0.1 µM: read-out: Inhibition rate of compounds on 2-HG in the supernatant of U87-IDH R132C cells, 100 nM
Protocol: U87 cells overexpressing the IDH R132C mutation were seeded in a 48-well plate at 50,000 cells/well. After the cells were incubated overnight for adhesion, the supernatant was removed. The cell culture media containing serially diluted compounds were added, and the cells were incubated for 72 h. After 72 h, the cultures were collected and diluted 10-fold with water, and acetonitrile was added to extract the metabolites. The 2-HG content in the cultures was analyzed by LC-MS-MS, and the percentage inhibition of compounds on 2-HG in the supernatant was calculated as compared with the control.

T1 sequence (O75874 whole entry R132C): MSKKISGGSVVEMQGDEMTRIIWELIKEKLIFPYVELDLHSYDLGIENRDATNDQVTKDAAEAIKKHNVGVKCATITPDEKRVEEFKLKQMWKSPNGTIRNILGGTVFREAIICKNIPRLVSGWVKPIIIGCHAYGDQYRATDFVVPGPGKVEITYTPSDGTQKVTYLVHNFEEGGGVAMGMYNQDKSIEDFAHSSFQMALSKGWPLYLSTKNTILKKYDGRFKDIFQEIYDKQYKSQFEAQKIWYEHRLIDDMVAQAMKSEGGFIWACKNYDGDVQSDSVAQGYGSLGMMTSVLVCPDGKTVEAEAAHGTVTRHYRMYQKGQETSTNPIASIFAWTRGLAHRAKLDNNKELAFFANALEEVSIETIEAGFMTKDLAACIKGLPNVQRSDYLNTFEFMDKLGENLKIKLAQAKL

Structure (SMILES)	Inhibition rate of compounds on 2-HG in the supernatant of U87-IDH R132C cells, 1 nM (1 nM compound)	Inhibition rate of compounds on 2-HG in the supernatant of U87-IDH R132C cells, 10 nM (10 nM compound)	Inhibition rate of compounds on 2-HG in the supernatant of U87-IDH R132C cells, 100 nM (100 nM compound)	inhibition at 0.001 µM (1 nM compound)	inhibition at 0.01 µM (10 nM compound)	inhibition at 0.1 µM (100 nM compound)
C=CC(=O)N1CC2(CC([C@@H](CC3CCC3)c3ccc([C@H](C)Nc4ncc5c(n4)N(CC)C(=O)OC5)cc3)C2)C1 [Compound 1-1]	C (C represents an inhibition rate greater than 30% but less than or equal to 60%)	A (A represents an inhibition rate greater than 90%)	A (A represents an inhibition rate greater than 90%)	–	–	–
C=CC(=O)NC1CCN(C(CC2CC2)c2ccc(C3(Nc4ncc5c(n4)N(C(C)C)C(=O)OC5)CC3)cc2)CC1 (stereo not drawn) [Compound 32]	–	–	–	30 to 60%	30 to 60%	> 90%
C=CC(=O)N1CC2(C1)CN(C(CC1CC1)c1ccc([C@H](C)Nc3ncc4c(n3)N(CC(C)C)C(=O)OC4)cc1)C2 (stereo partly drawn) [Compound 54]	–	–	–	60 to 90%	60 to 90%	> 90%
C=CC(=O)N1CCN([C@@H](CC2CC2)c2ccc([C@H](C)Nc3ncc4cnc(=O)n(CC)c4n3)cc2)CC1 [Compound 114-1]	–	–	–	60 to 90%	> 90%	> 90%
C=CC(=O)N1CC2(C1)CN([C@@H](CC13CC(C1)C3)c1ccc([C@H](C)Nc3ncc4c(n3)N(CC)C(=O)OC4)cc1)C2 [Compound 66-1]	–	–	–	60 to 90%	> 90%	> 90%
C=CC(=O)N1CC2(C1)CN([C@H](CC13CC(C1)C3)c1ccc([C@H](C)Nc3ncc4c(n3)N(CC)C(=O)OC4)cc1)C2 [Compound 66-2]	–	–	–	30 to 60%	60 to 90%	> 90%
C=CC(=O)N1CCN([C@H](CC2CC2)c2ccc([C@H](C)Nc3ncc4cnc(=O)n(CC)c4n3)cc2)CC1 [Compound 114-2]	–	–	–	30 to 60%	> 90%	> 90%
C=CC(=O)N1CCN(C(CCC)c2ccc([C@H](C)Nc3ncc4c(n3)N(CC)C(=O)OC4)cc2)CC1 (stereo partly drawn) [Compound 141]	–	–	–	30 to 60%	60 to 90%	> 90%
C=CC(=O)N1CC2(C1)CN(C(CC1CC1)c1ccc([C@H](C)Nc3ncc4c(n3)N(CCC)C(=O)OC4)cc1)C2 (stereo partly drawn) [Compound 53]	–	–	–	30 to 60%	60 to 90%	> 90%
C=CC(=O)N1CCN(C(CC2CC2)c2ccc(C3(Nc4ncc5c(n4)N(C(C)C)C(=O)OC5)CC3)cc2)CC1 (stereo not drawn) [Compound 148]	–	–	–	< 30%	60 to 90%	> 90%
C=CC(=O)N1CCN(C(CC)c2ccc([C@H](C)Nc3ncc4c(n3)N(C(C)C)C(=O)NC4)cc2)CC1 (stereo partly drawn) [Compound 80]	–	–	–	30 to 60%	60 to 90%	> 90%
C=CC(=O)N1CCN(C(CC2CC2)c2ccc(C3(Nc4ncc5cnc(=O)n(CC)c5n4)CC3)cc2)CC1 (stereo not drawn) [Compound 109]	–	–	–	60 to 90%	60 to 90%	> 90%
C=CC(=O)N1CCN([C@@H](CC23CC(C2)C3)c2ccc([C@H](C)Nc3ncc4c(n3)N(CC)C(=O)NC4)cc2)CC1 [Compound 70-1]	–	–	–	60 to 90%	> 90%	> 90%
C=CC(=O)N1CCN(C(CC2CCC2)c2ccc(C3(Nc4ncc5c(n4)N(CC)C(=O)OC5)CC3)cc2)CC1 (stereo not drawn) [Compound 153]	–	–	–	30 to 60%	60 to 90%	> 90%
C=CC(=O)N1CC2(C1)CN(C(CC(C)C)c1ccc([C@H](C)Nc3ncc4c(n3)N(CC)C(=O)OC4)cc1)C2 (stereo partly drawn) [Compound 41]	–	–	–	30 to 60%	> 90%	> 90%
C=CC(=O)N1CC2(C1)CN(C(CC(C)C)c1ccc([C@H](C)Nc3ncc4c(n3)N(C(C)C)C(=O)OC4)cc1)C2 (stereo partly drawn) [Compound 47]	–	–	–	60 to 90%	> 90%	> 90%
C=CC(=O)N1CCN([C@H](CC23CC(C2)C3)c2ccc([C@H](C)Nc3ncc4c(n3)N(CC)C(=O)NC4)cc2)CC1 [Compound 70-2]	–	–	–	60 to 90%	60 to 90%	> 90%
C=CC(=O)N1CC2(C1)CN(C(CC)c1ccc([C@H](C)Nc3ncc4c(n3)N(C(C)C)C(=O)OC4)cc1)C2 (stereo partly drawn) [Compound 46]	–	–	–	60 to 90%	> 90%	> 90%
C=CC(=O)N1CCN(C(CC2CCC2)c2ccc([C@H](C)Nc3ncc4cnc(=O)n(C(C)C)c4n3)cc2)CC1 (stereo partly drawn) [Compound 125]	–	–	–	30 to 60%	60 to 90%	> 90%
